{"source": "PubChem BioAssay AID1963825", "about": "(Molecular Pharmacology Branch, DTP, NCI, 2024);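 further: luminescence signal used as a surrogate for viable cells; spheroids exposed to drugs for seven days before readout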", "experiment": "Anticancer human tumor 997537-175-T-J1-PDC patient-derived colon adenocarcinoma cell line growth inhibition [POLQ]", "conditions": "997537-175-T-J1-PDC complex spheroid viability, combination with POLQ inhibitors; for IC50: curve of first compound; for viability, T/C: stronger effect = lower value", "procedure,_shortened": "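Growth inhibition in 3D: complex spheroids (tumor PDC, HUVEC, MSC) treated with POLQ inhibitor combinations; where Cmax unknown, highest tested concentration 10 microM, except SN-38 at 1 microM.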", "data": [{"smiles": "CCCS(=O)(=O)Nc1ccc(F)c(C(=O)c2c[nH]c3ncc(-c4ccc(Cl)cc4)cc23)c1F", "note": "+ Cc1cccc(N(C)C(=O)C2C(O)CCN2c2nc(C)cc(C(F)(F)F)c2C#N)c1", "values": [{"measurement": "IC50", "setting": "second compound 0.0316 µM", "result": 4.85, "unit": "µM"}, {"measurement": "IC50", "setting": "second compound 0.1 µM", "result": 5.35, "unit": "µM"}, {"measurement": "IC50", "setting": "second compound 0.316 µM", "result": 5.84, "unit": "µM"}, {"measurement": "IC50", "setting": "second compound 1 µM", "result": 4.49, "unit": "µM"}, {"measurement": "IC50", "setting": "second compound 3.16 µM", "result": 6.65, "unit": "µM"}, {"measurement": "IC50", "setting": "second compound 10 µM", "result": 5.16, "unit": "µM"}, {"measurement": "viability, T/C", "setting": "second compound 0.0316 µM, first compound 0.0316 µM", "result": 100, "unit": "%"}, {"measurement": "viability, T/C", "setting": "second compound 0.0316 µM, first compound 0.1 µM", "result": 79.5, "unit": "%"}, {"measurement": "viability, T/C", "setting": "second compound 0.0316 µM, first compound 0.316 µM", "result": 82.5, "unit": "%"}, {"measurement": "viability, T/C", "setting": "second compound 0.0316 µM, first compound 1 µM", "result": 75.4, "unit": "%"}, {"measurement": "viability, T/C", "setting": "second compound 0.0316 µM, first compound 3.16 µM", "result": 70.5, "unit": "%"}, {"measurement": "viability, T/C", "setting": "second compound 0.0316 µM, first compound 10 µM", "result": 22.8, "unit": "%"}, {"measurement": "viability, T/C", "setting": "second compound 0.1 µM, first compound 0.0316 µM", "result": 105, "unit": "%"}, {"measurement": "viability, T/C", "setting": "second compound 0.1 µM, first compound 0.1 µM", "result": 91.7, "unit": "%"}, {"measurement": "viability, T/C", "setting": "second compound 0.1 µM, first compound 0.316 µM", "result": 82.4, "unit": "%"}, {"measurement": "viability, T/C", "setting": "second compound 0.1 µM, first compound 1 µM", "result": 83, "unit": "%"}, {"measurement": "viability, T/C", "setting": "second compound 0.1 µM, first compound 3.16 µM", "result": 74.5, "unit": "%"}, {"measurement": "viability, T/C", "setting": "second compound 0.1 µM, first compound 10 µM", "result": 25.9, "unit": "%"}, {"measurement": "viability, T/C", "setting": "second compound 0.316 µM, first compound 0.0316 µM", "result": 105, "unit": "%"}, {"measurement": "viability, T/C", "setting": "second compound 0.316 µM, first compound 0.1 µM", "result": 78, "unit": "%"}, {"measurement": "viability, T/C", "setting": "second compound 0.316 µM, first compound 0.316 µM", "result": 71.7, "unit": "%"}, {"measurement": "viability, T/C", "setting": "second compound 0.316 µM, first compound 1 µM", "result": 75.4, "unit": "%"}, {"measurement": "viability, T/C", "setting": "second compound 0.316 µM, first compound 3.16 µM", "result": 80.8, "unit": "%"}, {"measurement": "viability, T/C", "setting": "second compound 0.316 µM, first compound 10 µM", "result": 23.1, "unit": "%"}, {"measurement": "viability, T/C", "setting": "second compound 1 µM, first compound 0.0316 µM", "result": 102, "unit": "%"}, {"measurement": "viability, T/C", "setting": "second compound 1 µM, first compound 0.1 µM", "result": 87.4, "unit": "%"}, {"measurement": "viability, T/C", "setting": "second compound 1 µM, first compound 0.316 µM", "result": 85.9, "unit": "%"}, {"measurement": "viability, T/C", "setting": "second compound 1 µM, first compound 1 µM", "result": 75.7, "unit": "%"}, {"measurement": "viability, T/C", "setting": "second compound 1 µM, first compound 3.16 µM", "result": 61.5, "unit": "%"}, {"measurement": "viability, T/C", "setting": "second compound 1 µM, first compound 10 µM", "result": 29.5, "unit": "%"}, {"measurement": "viability, T/C", "setting": "second compound 3.16 µM, first compound 0.0316 µM", "result": 85.7, "unit": "%"}, {"measurement": "viability, T/C", "setting": "second compound 3.16 µM, first compound 0.1 µM", "result": 77, "unit": "%"}, {"measurement": "viability, T/C", "setting": "second compound 3.16 µM, first compound 0.316 µM", "result": 77.7, "unit": "%"}, {"measurement": "viability, T/C", "setting": "second compound 3.16 µM, first compound 1 µM", "result": 68, "unit": "%"}, {"measurement": "viability, T/C", "setting": "second compound 3.16 µM, first compound 3.16 µM", "result": 75.1, "unit": "%"}, {"measurement": "viability, T/C", "setting": "second compound 3.16 µM, first compound 10 µM", "result": 36.7, "unit": "%"}, {"measurement": "viability, T/C", "setting": "second compound 10 µM, first compound 0.0316 µM", "result": 92.3, "unit": "%"}, {"measurement": "viability, T/C", "setting": "second compound 10 µM, first compound 0.1 µM", "result": 88.9, "unit": "%"}, {"measurement": "viability, T/C", "setting": "second compound 10 µM, first compound 0.316 µM", "result": 86.1, "unit": "%"}, {"measurement": "viability, T/C", "setting": "second compound 10 µM, first compound 1 µM", "result": 81.5, "unit": "%"}, {"measurement": "viability, T/C", "setting": "second compound 10 µM, first compound 3.16 µM", "result": 73.3, "unit": "%"}, {"measurement": "viability, T/C", "setting": "second compound 10 µM, first compound 10 µM", "result": 20.6, "unit": "%"}]}]}
